Results: PMC8490629, “Metabolites of Procyanidins From Litchi Chinensis Pericarp With Xanthine Oxidase Inhibitory Effect and Antioxidant Activity” (Frontiers in Nutrition, 2021)
Marks after values point to notes of the source that are not given here.

Test system: not listed separately
Experiment: DPPH radical scavenging activity
Conditions: not given
Experimental: 1, 1-Diphenyl-2-picrylhydrazyl radical scavenging activity was determined referring to the method described previously ([41]). Litchi pericarp and phenolic acids were dissolved in 1.0 ml of deionized water at various concentrations ranging from 2.0 to 100.0 μg/ml. Then, the solution of the sample was mixed with 1.0 ml of freshly prepared 0.2 mM DPPH ethanolic solution. Control in the experiment was prepared by the same reagent without the sample. All the tubes were incubated at 37°C for 30 min in the dark, and the final solution was recorded at 517 nm. The DPPH radical scavenging activity was calculated using the following equation:
DPPH radical scavenging rate (%) =(Acontrol-Asample)/Acontrol × 100

Row | SMILES | IC50 (μg/ml) DPPH·
1 | O=C(O)/C=C/c1ccc(O)c(O)c1 [Caffeic acid, caffeic acid] | 9.88 ± 0.55^c μg/ml
2 | O=C(O)C1=C[C@@H](O)[C@@H](O)[C@H](O)C1 [Shikimic acid, shikimic acid] | 8.96 ± 0.18b^c μg/ml
3 | COc1cc(C(=O)O)ccc1O [Vanillic acid, vanillic acid] | 86.06 ± 1.33^i μg/ml
4 | O=C(O)/C=C/c1cccc(O)c1 [m-Coumaric acid, m-coumaric acid] | 21.93 ± 1.25^e μg/ml
5 | O=C(O)/C=C/c1ccc(O)cc1 [p-Coumaric acid, p-coumaric acid] | 16.53 ± 0.65^d μg/ml

Same assay, conditions: listed as vanillic acid

Row | SMILES | IC50 (μg/ml) DPPH· [µg/mL]
6 | COc1cc(C(=O)O)ccc1O [Vanillic acid, vanillic acid] | > 50

Test system: not listed separately
Experiment: Hydroxyl radical scavenging activity
Conditions: not given
Experimental: Hydroxyl radical scavenging activity was assessed according to the method of Dong et al. ([42]) with modifications. The reagents and samples were added strictly obeying following order: 0.25 ml 1.5 mM phenanthroline ethanolic solution, 0.5 ml phosphoric acid buffer (pH = 7.4), 0.25 ml 1.5 mM freshly prepared ferrous sulfate solution, 0.5 ml sample (0–0.5 mg), and 0.25 ml 0.01% H2O2. The injured tubes in the experiment were prepared by the same reagents except samples, while control was carried out by adding sample without H2O2. The mixtures were shaken and incubated at 37°C for 1 h, and then measured at 536 nm. The hydroxyl radical scavenging activity was calculated using the following equation:
hydroxyl radical scavenging rate (%) =Asample-Ainjured/Acontrol-Ainjured ×100

Row | SMILES | IC50 (μg/ml) ·OH
7 | O=C(O)/C=C/c1ccc(O)c(O)c1 [Caffeic acid, caffeic acid] | 161.47 ± 3.31^c μg/ml
8 | O=C(O)C1=C[C@@H](O)[C@@H](O)[C@H](O)C1 [Shikimic acid, shikimic acid] | 186.53 ± 7.56^d μg/ml
9 | COc1cc(C(=O)O)ccc1O [Vanillic acid, vanillic acid] | 897.33 ± 9.90^i μg/ml
10 | O=C(O)/C=C/c1cccc(O)c1 [m-Coumaric acid, m-coumaric acid] | 256.43 ± 9.33^f μg/ml
11 | O=C(O)/C=C/c1ccc(O)cc1 [p-Coumaric acid, p-coumaric acid] | 220.13 ± 4.57^e μg/ml

Test system: not listed separately
Experiment: Urinary excretion of procyanidins and metabolites in rats after oral LPPC (HPLC / LC-MS)
Type: in vivo, rat
Conditions: rat urine 0-24 h after oral LPPC 300 mg/kg, after glucuronidase/sulfatase deconjugation
Experimental: Male Sprague-Dawley rats weighing 220 ± 20 g were randomly divided into two groups (n = 20) with 10 rats in each group. Prior to administration, animals were deprived of food for 12 h, but had access to deionized water. The LPPC was dissolved in physiological saline and administered orally to rats at a dose of 300 mg/kg body weight. In addition, the physiological saline was administered orally to the rats in another group as control. All the rats were placed in metabolic cages, each rat per cage (Jiayuan Technology Co. Ltd., Beijing, China). The samples of urine excreted from 0 to 24 h postadministration were collected from the bottom of the metabolic cage under chilled conditions using an ice bath and stored at −80°C before analysis, referring to the method described previously ([38]).
The sample of urine was centrifuged at 4,000 r/min for 10 min at 4°C, and the supernatant was collected. The supernatant was acidified to pH = 5.5 with 0.6 mol/l acetic acid and incubated at 37°C for 60 min in the presence of 10 KU β-glucuronidase with the activity of sulfatase. After further acidification to pH = 2 with 6 mol/l HCl, the samples were directly extracted by ethyl acetate × 3. The resulting supernatant was dried under vacuum by rotatory evaporation at 40°C until the ethyl acetate was completely removed and dissolved in 1 ml of 50% methanol. Then, the solution was purified by the solid phase extraction, and the residue was redissolved in methanol and analyzed by LC-MS as described by Li et al. with modifications ([39]).
Selected samples were analyzed on an Agilent 1100 LC-ESI-MS system (Agilent Technologies Co. Ltd., Foster City, California, USA) to identify metabolites in urine. A VP-ODS column (150 × 4.6 mm ID, 5 μm particle size, Shimadzu Co., Kyoto, Japan) was used and 20 μl solution of the sample was injected. The mobile phases consisted of 0.4% (v/v) aqueous acetic acid as A and acetonitrile as B with the following linear gradient: from 5 to 35% B in the first 40 min, from 35 to 50% B in the next 5 min, from 50 to 80% B in the next 5 min, and from 80 to 5% B in the next 5 min, and re-equilibrated with 5% B for 5 min before next injection. The flow rate was 0.2 ml/min and the absorbance of the eluate was monitored at 280 nm. Mass spectra were collected using an electrospray ionization (ESI) ion source in the negative mode under the following conditions: orifice voltage, −30 V; nebulizing pressure, 30 psi; heat capillary temperature, 275°C; and mass range, m/z 100-1,200.

Row | SMILES | Urinary excretion, phenolic acids [nmol]
12 | O=C(O)/C=C/c1ccc(O)c(O)c1 [Caffeic acid, caffeic acid] | 20.67 ± 2.68
13 | O=C(O)C1=C[C@@H](O)[C@@H](O)[C@H](O)C1 [Shikimic acid, shikimic acid] | 27.22 ± 7.02
14 | COc1cc(C(=O)O)ccc1O [Vanillic acid, vanillic acid] | 6.62 ± 2.79
15 | O=C(O)/C=C/c1cccc(O)c1 [m-Coumaric acid, m-coumaric acid] | 39.01 ± 7.33
16 | O=C(O)/C=C/c1ccc(O)cc1 [p-Coumaric acid, p-coumaric acid] | 13.89 ± 1.65

Biological target: T1, xanthine oxidase (Bos taurus, UniProt P80457)
T1 construct: purchased Sigma (St. Louis, MO, USA)
Experiment: Xanthine oxidase inhibition assay (uric acid production from xanthine, 295 nm)
Type: biochemical
Conditions: read-out: IC50 (μg/ml) xanthine oxidase (converted)

T1 sequence (P80457 2-1332 limits assumed): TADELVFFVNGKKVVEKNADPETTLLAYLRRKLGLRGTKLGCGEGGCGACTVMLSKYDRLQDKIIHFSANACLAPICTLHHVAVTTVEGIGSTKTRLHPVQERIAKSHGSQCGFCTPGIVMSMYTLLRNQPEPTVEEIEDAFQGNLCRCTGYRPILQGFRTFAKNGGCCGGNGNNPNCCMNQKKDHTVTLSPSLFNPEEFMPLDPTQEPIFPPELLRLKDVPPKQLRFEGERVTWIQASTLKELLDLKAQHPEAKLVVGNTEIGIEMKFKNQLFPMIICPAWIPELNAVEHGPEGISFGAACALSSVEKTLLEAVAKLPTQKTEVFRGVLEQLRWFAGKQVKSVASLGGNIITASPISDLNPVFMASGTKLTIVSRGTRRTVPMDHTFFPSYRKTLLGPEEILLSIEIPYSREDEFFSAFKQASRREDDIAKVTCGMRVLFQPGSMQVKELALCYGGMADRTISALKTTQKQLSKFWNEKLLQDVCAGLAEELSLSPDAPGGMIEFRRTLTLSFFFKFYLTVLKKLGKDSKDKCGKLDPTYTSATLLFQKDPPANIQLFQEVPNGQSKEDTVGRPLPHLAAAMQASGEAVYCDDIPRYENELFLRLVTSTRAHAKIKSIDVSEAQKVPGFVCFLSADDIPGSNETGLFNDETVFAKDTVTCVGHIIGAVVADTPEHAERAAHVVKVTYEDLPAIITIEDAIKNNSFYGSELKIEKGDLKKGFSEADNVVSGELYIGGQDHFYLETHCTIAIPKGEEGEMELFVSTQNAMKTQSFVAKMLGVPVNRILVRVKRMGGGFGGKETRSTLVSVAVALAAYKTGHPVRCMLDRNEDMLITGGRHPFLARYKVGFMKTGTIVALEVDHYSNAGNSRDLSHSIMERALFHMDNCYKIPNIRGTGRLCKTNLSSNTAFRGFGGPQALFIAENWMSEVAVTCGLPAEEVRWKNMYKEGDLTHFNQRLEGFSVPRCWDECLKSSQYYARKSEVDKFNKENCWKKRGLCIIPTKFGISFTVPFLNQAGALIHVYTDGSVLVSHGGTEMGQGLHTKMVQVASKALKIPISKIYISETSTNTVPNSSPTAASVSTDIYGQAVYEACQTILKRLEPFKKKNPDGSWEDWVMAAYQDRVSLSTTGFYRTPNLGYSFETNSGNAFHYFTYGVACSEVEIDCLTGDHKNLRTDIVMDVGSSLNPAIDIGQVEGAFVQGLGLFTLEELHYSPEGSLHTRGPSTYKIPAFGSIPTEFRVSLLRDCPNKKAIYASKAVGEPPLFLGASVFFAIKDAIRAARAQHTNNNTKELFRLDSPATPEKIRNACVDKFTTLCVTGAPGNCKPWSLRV

Row | SMILES | IC50 [µM]
17 | O=C(O)/C=C/c1ccc(O)c(O)c1 [Caffeic acid, caffeic acid] | 531
18 | O=C(O)C1=C[C@@H](O)[C@@H](O)[C@H](O)C1 [Shikimic acid, shikimic acid] | 552
19 | COc1cc(C(=O)O)ccc1O [Vanillic acid, vanillic acid] | > 1190
20 | O=C(O)/C=C/c1cccc(O)c1 [m-Coumaric acid, m-coumaric acid] | 942
21 | O=C(O)/C=C/c1ccc(O)cc1 [p-Coumaric acid, p-coumaric acid] | 852

Same assay, conditions: read-out: Inhibition (%) at 200 μg/ml

Row | SMILES | inhibition at 200 µg/mL [%]
22 | Oc1ncnc2[nH]ncc12 [Allopurinol, reference compound] | 85.6 ± 3.13
23 | COc1cc(C(=O)O)ccc1O [Vanillic acid, vanillic acid] | 25 ± 1.47

Same assay, conditions: xanthine oxidase, 200 μg/ml

Row | SMILES | Inhibition (%) at 200 μg/ml
24 | O=C(O)C1=C[C@@H](O)[C@@H](O)[C@H](O)C1 [Shikimic acid, shikimic acid] | 61.13 ± 0.81^f %

Same assay, conditions: xanthine oxidase, 200 μg/ml; read-out: Inhibition (%) at 200 μg/ml

Row | SMILES | inhibition at 200 µg/mL [%]
25 | O=C(O)C1=C[C@@H](O)[C@@H](O)[C@H](O)C1 [Shikimic acid, shikimic acid] | > 50
26 | O=C(O)/C=C/c1cccc(O)c1 [m-Coumaric acid, m-coumaric acid] | 52.8 ± 1.57
27 | O=C(O)/C=C/c1ccc(O)cc1 [p-Coumaric acid, p-coumaric acid] | 57.4 ± 0.62
